Values quoted from earlier work in patent US20060269596A1, “Controlled release compositions comprising an acylanilide” (priority 2005, published 2006).

Assays:
[1] = 37 C

Q: Which “absorption following oral administration” value (oral) does the source give for `CC(O)(CS(=O)(=O)c1ccc(F)cc1)C(=O)Nc1ccc(C#N)c(C(F)(F)F)c1` (racemic) [Bicalutamide] here?
A: Its value is “well-absorbed”.

Q: What about the “effect of co-administration with food on rate or extent of absorption” value (with food) of the same compound?
A: The value was “no clinically significant effect”.

Q: What about the solubility in water [1] of the same compound?
A: Its solubility in water is 5 mg per 1000 mL.
